{
  "source": "ChEMBL document CHEMBL5465560",
  "about": "“Selectivity Literature for EUbOPEN Chemogenomic Library” (2024)",
  "key": {"[1]": {"system": "Tyrosine-protein kinase ABL1 (Homo sapiens), P00519 [F317L]", "assay": "Selectivity interaction (KinomeScan (DiscoverX)) EUB0001049a ABL1", "settings": "at 1 µM"}, "[2]": {"biological_target": "Calcium/calmodulin-dependent protein kinase kinase 2 (Homo sapiens) (UniProt Q96RR4)", "assay": "Selectivity interaction (KinomeScan (DiscoverX)) EUB0001049a CAMKK2", "settings": "at 1 µM"}, "[3]": {"biological_target": "Mitogen-activated protein kinase kinase kinase 14 (Homo sapiens) (UniProt Q99558)", "sequence (Q99558 whole entry, looked up)": "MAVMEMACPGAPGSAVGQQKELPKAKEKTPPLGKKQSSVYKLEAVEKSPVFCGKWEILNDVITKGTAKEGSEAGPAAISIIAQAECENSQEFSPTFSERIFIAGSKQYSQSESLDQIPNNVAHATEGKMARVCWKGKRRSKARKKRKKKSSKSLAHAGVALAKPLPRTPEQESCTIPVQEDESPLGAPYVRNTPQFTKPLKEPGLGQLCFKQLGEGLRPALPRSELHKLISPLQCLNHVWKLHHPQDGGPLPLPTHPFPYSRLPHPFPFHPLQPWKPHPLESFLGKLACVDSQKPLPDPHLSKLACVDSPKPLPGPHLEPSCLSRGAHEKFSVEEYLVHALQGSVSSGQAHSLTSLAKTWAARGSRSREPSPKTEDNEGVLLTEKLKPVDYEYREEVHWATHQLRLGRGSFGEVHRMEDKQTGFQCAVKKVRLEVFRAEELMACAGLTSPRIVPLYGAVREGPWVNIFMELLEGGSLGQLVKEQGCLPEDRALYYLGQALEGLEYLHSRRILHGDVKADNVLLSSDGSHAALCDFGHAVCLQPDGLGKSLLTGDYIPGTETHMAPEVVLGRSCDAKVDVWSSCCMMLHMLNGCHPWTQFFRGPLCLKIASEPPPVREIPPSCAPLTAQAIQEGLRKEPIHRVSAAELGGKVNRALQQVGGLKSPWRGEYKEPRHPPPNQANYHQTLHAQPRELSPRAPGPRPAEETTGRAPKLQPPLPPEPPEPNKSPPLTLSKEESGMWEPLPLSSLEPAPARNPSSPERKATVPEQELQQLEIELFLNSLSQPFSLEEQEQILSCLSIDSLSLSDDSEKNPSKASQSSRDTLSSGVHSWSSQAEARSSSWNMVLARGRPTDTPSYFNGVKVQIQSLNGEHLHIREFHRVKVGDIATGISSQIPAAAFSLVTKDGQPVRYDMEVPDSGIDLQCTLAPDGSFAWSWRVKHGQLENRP", "assay": "Selectivity interaction (KinomeScan (DiscoverX)) EUB0001049a MAP3K14", "settings": "at 1 µM"}, "[4]": {"biological_target": "Delta-type opioid receptor (Homo sapiens, UniProt P41143)", "assay": "Selectivity interaction (Eurofins CEREP Diversity Profile (receptors and ion channels)) EUB0000279b OPRD1", "settings": "at 10 µM"}, "[5]": {"biological_target": "T1, 3-phosphoinositide-dependent protein kinase 1 (Homo sapiens) (UniProt O15530)", "T1 sequence (whole entry)": "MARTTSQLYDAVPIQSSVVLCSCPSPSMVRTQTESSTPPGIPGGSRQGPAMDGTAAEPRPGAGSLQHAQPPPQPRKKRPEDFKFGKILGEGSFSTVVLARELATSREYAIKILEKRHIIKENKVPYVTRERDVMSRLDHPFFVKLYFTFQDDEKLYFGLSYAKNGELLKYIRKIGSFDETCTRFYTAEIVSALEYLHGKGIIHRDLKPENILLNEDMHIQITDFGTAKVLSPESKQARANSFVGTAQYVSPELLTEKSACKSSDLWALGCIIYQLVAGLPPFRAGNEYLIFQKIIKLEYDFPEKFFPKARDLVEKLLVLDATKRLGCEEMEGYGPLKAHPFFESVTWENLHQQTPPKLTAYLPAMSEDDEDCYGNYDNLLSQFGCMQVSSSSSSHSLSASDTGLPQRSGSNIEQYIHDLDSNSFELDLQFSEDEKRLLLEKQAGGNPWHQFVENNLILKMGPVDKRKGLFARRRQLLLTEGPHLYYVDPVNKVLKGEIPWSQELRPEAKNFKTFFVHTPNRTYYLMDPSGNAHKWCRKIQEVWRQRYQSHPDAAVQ", "assay": "Selectivity interaction (KinomeScan (DiscoverX)) EUB0001079a PDPK1", "settings": "at 1 µM"}, "[6]": {"biological_target": "Tyrosine-protein kinase Srms (Homo sapiens) (UniProt Q9H3Y6)", "sequence (Q9H3Y6 whole entry)": "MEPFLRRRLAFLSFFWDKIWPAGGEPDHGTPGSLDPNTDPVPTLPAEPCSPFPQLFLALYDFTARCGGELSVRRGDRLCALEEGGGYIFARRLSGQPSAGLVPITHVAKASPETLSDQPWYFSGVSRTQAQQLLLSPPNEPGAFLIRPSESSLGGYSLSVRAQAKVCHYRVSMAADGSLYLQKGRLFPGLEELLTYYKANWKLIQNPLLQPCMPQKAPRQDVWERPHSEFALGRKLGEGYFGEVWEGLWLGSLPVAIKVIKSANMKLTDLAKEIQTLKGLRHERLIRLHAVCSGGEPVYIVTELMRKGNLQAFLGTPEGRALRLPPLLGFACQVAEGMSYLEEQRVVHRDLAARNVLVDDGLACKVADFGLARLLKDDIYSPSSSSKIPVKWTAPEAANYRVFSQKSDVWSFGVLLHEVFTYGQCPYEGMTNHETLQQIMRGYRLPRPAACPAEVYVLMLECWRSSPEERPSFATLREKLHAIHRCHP", "assay": "Selectivity interaction (KinomeScan (DiscoverX)) EUB0001079a SRMS", "settings": "at 1 µM"}, "[7]": {"biological_target": "Dual specificity mitogen-activated protein kinase kinase 1 (Homo sapiens, UniProt Q02750)", "sequence (Q02750 whole entry)": "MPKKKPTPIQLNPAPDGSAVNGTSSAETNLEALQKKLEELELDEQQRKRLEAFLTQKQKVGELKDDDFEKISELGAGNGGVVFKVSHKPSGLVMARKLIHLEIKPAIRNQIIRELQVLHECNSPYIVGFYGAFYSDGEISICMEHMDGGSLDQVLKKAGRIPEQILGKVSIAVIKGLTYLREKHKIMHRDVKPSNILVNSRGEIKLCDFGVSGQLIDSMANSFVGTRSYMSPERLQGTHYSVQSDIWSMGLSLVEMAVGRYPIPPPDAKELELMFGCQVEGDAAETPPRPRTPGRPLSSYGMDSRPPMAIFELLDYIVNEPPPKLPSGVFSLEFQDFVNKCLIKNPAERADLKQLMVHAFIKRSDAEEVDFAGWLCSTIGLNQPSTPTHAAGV", "assay": "Selectivity interaction (Kinase panel (DSF assay)) EUB0001558a MAP2K1"}, "[8]": {"biological_target": "1-phosphatidylinositol 3-phosphate 5-kinase (Homo sapiens) (UniProt Q9Y2I7)", "sequence (Q9Y2I7 whole entry)": "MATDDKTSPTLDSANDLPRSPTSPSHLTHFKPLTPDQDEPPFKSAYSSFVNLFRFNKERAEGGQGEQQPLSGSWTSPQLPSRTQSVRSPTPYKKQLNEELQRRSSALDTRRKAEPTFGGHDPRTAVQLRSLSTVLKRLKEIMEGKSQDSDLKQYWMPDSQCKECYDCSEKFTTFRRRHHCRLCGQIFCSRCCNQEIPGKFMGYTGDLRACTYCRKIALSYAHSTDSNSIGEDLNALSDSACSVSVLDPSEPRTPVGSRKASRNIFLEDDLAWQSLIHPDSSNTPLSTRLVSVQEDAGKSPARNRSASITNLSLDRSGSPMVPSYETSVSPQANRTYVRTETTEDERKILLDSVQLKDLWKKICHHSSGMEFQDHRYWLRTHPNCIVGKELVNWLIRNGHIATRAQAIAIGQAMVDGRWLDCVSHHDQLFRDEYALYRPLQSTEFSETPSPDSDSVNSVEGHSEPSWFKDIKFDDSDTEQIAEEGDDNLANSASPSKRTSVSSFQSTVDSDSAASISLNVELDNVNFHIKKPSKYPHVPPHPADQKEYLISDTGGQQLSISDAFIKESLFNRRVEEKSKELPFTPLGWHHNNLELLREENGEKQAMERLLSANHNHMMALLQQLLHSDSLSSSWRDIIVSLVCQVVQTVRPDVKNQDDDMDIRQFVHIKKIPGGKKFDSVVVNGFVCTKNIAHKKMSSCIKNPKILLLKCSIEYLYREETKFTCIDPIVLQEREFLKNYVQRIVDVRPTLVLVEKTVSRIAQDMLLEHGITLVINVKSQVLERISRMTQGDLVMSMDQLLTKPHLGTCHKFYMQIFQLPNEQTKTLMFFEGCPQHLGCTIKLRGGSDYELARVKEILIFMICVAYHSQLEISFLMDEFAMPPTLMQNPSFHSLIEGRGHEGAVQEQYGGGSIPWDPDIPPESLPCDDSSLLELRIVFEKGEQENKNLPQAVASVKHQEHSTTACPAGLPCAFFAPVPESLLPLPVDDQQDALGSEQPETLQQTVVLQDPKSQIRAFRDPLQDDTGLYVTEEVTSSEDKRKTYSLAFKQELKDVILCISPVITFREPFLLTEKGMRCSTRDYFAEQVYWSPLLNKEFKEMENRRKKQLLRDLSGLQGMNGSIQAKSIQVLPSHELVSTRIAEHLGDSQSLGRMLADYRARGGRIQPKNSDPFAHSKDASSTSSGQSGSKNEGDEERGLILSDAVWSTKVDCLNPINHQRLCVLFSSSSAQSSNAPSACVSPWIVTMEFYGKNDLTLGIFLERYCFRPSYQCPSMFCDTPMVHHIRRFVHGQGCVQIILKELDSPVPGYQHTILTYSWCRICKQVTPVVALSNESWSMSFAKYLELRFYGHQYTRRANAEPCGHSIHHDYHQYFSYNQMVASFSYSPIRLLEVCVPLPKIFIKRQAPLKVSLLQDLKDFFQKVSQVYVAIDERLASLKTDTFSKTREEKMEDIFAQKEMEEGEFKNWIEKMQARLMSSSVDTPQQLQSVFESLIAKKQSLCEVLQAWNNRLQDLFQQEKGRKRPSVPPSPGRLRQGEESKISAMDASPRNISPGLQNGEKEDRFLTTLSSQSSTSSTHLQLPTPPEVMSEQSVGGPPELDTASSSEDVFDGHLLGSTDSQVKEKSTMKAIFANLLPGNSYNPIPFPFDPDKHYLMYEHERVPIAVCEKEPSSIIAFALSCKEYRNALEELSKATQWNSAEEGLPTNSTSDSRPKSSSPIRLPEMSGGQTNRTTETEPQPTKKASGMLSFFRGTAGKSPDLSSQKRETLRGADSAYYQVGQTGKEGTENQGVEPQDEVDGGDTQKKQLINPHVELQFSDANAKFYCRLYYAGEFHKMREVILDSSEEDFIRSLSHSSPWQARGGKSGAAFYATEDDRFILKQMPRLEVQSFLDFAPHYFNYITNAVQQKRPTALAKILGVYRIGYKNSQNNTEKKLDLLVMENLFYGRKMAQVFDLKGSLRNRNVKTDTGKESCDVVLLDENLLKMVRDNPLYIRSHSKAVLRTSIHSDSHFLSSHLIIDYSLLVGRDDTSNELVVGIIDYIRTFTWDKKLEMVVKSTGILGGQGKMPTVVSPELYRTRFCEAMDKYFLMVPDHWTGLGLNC", "assay": "Selectivity interaction (Kinase panel (KiNativ target engagement assay in Jurkat cells)) EUB0001635a PIKFYVE", "format": "cell-based", "settings": "Selectivity number of off-targets 0.0, Selectivity number of targets 233.0, Source Knowledge https://www.sciencedirect.com/science/article/pii/S2451945619300674?via%3Dihub, at 1 µM"}, "[9]": {"biological_target": "T2, Aurora kinase A (Homo sapiens) (UniProt O14965)", "T2 sequence (whole entry)": "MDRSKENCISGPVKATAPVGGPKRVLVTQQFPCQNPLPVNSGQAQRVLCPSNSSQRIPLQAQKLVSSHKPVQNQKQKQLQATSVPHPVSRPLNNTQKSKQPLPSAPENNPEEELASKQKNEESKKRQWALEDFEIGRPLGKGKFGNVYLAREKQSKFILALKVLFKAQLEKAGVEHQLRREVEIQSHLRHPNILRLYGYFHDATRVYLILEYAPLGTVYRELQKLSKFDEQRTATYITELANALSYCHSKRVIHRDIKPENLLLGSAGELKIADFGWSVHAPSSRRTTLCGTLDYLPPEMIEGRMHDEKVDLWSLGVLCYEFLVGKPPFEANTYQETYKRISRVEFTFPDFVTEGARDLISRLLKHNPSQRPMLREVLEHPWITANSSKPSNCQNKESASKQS", "assay": "Selectivity interaction (ActivX KiNativ screen (kinase selectivity in THP-1 cell lysates)) EUB0000639a STK6", "format": "subcellular", "settings": "lysate, at 0.04 µM"}, "[10]": {"biological_target": "Tyrosine-protein kinase FRK (Homo sapiens) (UniProt P42685)", "sequence (P42685 whole entry)": "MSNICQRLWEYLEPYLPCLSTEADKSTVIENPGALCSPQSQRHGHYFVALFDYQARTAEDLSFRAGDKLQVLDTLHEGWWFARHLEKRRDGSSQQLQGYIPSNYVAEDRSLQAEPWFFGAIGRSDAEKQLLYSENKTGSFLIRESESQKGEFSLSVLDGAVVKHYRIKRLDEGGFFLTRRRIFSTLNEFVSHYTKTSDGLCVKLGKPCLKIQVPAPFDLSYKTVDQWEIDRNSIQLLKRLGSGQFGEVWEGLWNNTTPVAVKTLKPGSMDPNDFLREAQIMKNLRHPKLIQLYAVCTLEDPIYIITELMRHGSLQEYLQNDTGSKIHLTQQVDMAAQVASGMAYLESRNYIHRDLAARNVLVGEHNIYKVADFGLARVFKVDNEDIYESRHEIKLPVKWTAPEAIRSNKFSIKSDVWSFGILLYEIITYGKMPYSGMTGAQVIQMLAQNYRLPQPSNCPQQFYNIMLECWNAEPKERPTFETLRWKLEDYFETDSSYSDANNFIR", "assay": "Selectivity interaction (Kinase panel (Invitrogen)) EUB0000639a FRK", "settings": "at 200 nM"}, "[11]": {"biological_target": "T3, Protein kinase C iota type (Homo sapiens) (UniProt P41743)", "T3 sequence (whole entry)": "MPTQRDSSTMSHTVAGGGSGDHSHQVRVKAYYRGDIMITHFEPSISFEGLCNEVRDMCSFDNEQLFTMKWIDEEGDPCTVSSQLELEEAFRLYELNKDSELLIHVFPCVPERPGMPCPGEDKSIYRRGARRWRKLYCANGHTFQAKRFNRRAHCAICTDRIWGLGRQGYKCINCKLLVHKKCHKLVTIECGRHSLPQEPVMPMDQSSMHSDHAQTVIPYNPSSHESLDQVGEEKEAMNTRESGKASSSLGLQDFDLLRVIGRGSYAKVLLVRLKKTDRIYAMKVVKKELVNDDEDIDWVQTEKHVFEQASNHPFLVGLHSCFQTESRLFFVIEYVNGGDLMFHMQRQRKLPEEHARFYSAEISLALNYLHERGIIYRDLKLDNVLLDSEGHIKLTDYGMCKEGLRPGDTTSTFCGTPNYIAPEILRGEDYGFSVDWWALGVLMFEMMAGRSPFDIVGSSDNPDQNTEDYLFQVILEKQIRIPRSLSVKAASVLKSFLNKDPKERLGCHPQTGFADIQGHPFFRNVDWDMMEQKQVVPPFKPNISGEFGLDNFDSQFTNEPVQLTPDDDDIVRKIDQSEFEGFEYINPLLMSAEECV", "assay": "Selectivity interaction (Kinase panel (Invitrogen)) EUB0000639a PRKCI", "settings": "at 200 nM"}, "[12]": {"biological_target": "Serine/threonine-protein kinase SMG1 (Homo sapiens) (UniProt Q96Q15)", "assay": "Selectivity interaction (ActivX KiNativ screen (kinase selectivity in THP-1 cell lysates)) EUB0000639a SMG1", "format": "subcellular", "settings": "lysate, at 0.04 µM"}, "[13]": {"biological_target": "Maternal embryonic leucine zipper kinase (Homo sapiens) (UniProt Q14680)", "sequence (Q14680 whole entry, looked up)": "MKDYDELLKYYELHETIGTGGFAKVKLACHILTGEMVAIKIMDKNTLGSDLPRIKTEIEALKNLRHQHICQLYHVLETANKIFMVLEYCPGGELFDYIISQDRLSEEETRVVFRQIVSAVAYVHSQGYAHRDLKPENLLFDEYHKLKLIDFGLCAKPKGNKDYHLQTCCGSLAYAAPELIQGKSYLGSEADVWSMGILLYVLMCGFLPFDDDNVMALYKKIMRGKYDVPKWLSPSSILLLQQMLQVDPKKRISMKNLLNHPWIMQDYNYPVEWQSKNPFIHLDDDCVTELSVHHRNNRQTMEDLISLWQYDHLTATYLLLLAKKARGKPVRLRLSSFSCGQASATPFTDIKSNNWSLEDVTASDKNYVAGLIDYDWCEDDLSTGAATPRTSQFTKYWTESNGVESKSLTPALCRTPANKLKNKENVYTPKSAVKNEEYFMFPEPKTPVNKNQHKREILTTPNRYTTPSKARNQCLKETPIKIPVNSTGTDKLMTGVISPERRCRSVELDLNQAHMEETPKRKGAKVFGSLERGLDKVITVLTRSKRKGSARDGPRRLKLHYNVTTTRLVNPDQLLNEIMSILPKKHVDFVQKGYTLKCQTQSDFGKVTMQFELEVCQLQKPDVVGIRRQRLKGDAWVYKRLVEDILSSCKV", "assay": "Selectivity interaction (KinomeScan (DiscoverX)) EUB0000595a MELK", "settings": "at 10 µM"}, "[14]": {"biological_target": "Serine/threonine-protein kinase MRCK beta (Homo sapiens) (UniProt Q9Y5S2)", "assay": "Selectivity interaction (Ambit KINOMEscan and KiNATiv profiling in Jurkat cells) EUB0000090b CDC42BPB", "format": "cell-based", "settings": "at 1 µM"}, "[15]": {"biological_target": "Tyrosine-protein kinase SYK (Homo sapiens, UniProt P43405)", "assay": "Selectivity interaction (KinomeScan (DiscoverX)) EUB0000618a SYK", "settings": "at 10 µM"}, "[16]": {"biological_target": "Serine/threonine-protein kinase 16 (Homo sapiens, UniProt O75716)", "assay": "Selectivity interaction (KinomeScan (DiscoverX)) EUB0000655a STK16", "settings": "at 10 µM"}},
  "data": [
    {"compound": "COc1cc(Nc2nc(C)cc(-c3cnn4nc(OC)ccc34)n2)cc(C(F)(F)F)c1", "values": [
      {"measurement": "% of control", "setting": "[1]", "result": 91, "unit": "%"},
      {"measurement": "% of control", "setting": "[2]", "result": 100, "unit": "%"},
      {"measurement": "% of control", "setting": "[3]", "result": 98, "unit": "%"}
    ]},
    {"compound": "CC(=O)c1cc(-c2ccccc2OCC2CC2)c2ncccn12", "values": [
      {"measurement": "% of control", "setting": "[4]", "result": 91, "unit": "%"}
    ]},
    {"compound": "Nc1cnc(N2CCc3cc(S(=O)(=O)Nc4c(F)cc(Cl)cc4F)cc(N4CCCC4=O)c32)nc1", "note": "[TP-020n]", "values": [
      {"measurement": "% of control", "setting": "[5]", "result": 98, "unit": "%"},
      {"measurement": "% of control", "setting": "[6]", "result": 88, "unit": "%"}
    ]},
    {"compound": "CC(C)(O)[C@H](F)CN1Cc2cc(NC(=O)c3cnn4cccnc34)c(N3CCOCC3)cc2C1=O", "values": [
      {"measurement": "dTM", "setting": "[7]", "result": 1.3, "unit": "K"}
    ]},
    {"compound": "C=CC(=O)Nc1ccc(C(=O)Nc2[nH]nc3c2CN(C(=O)N[C@H](CN(C)C)c2ccccc2)C3(C)C)cc1", "values": [
      {"measurement": "% of engagement", "setting": "[8]", "result": -3.5, "unit": "%"}
    ]},
    {"compound": "CC[C@@H]1[C@H](F)C(=O)N[C@@H]1COc1nccc2cc(C(N)=O)c(OC)cc12", "note": "[ZIMLOVISERTIB]", "values": [
      {"measurement": "% of inhibition", "setting": "[9]", "result": -6.4, "unit": "%"},
      {"measurement": "% of inhibition", "setting": "[10]", "result": 6.43, "unit": "%"},
      {"measurement": "% of inhibition", "setting": "[11]", "result": 5.1, "unit": "%"},
      {"measurement": "% of inhibition", "setting": "[12]", "result": 4.1, "unit": "%"}
    ]},
    {"compound": "COCC(=O)NC/C=C/c1ccc2ncnc(Nc3ccc(Oc4ccc(C)nc4)c(C)c3)c2c1", "note": "[CP-724714]", "values": [
      {"measurement": "% of control", "setting": "[13]", "result": 92, "unit": "%"}
    ]},
    {"compound": "CN(C)C/C=C/C(=O)Nc1ccc(C(=O)N2CCCC(Nc3ncc(Cl)c(-c4c[nH]c5ccccc45)n3)C2)cc1", "note": "(stereo unspecified)", "values": [
      {"measurement": "% of control", "setting": "[14]", "result": 96, "unit": "%"}
    ]},
    {"compound": "O[C@H]1CC[C@H](Nc2ncc3nc(Nc4c(F)cc(F)cc4F)n([C@H]4CCOC4)c3n2)CC1", "values": [
      {"measurement": "% of control", "setting": "[15]", "result": 100, "unit": "%"}
    ]},
    {"compound": "CN(C)CCOc1ccc(-c2nc(-c3ccncc3)c(-c3ccc4c(c3)CC/C4=N\\O)[nH]2)cc1", "values": [
      {"measurement": "% of control", "setting": "[16]", "result": 94, "unit": "%"}
    ]}
  ]
}
